Reference: PubChem BioAssay AID2305 (GlaxoSmithKline (GSK), 2010)

System: P. falciparum 3D7 growth, pLDH absorbance
Experiment: P. falciparum 3D7 growth inhibition, dose response, strain 3D7 (AID 2305)

| SMILES | IC50 [µM] |
| --- | --- |
| O=C(N[C@@H](Cc1ccccc1)C(=O)NC1CCCc2ccccc21)c1ccc(O)c(-c2ccc(Cl)c(Cl)c2)c1 (stereo partly drawn) | 0.21 |
| COc1ccc(-c2cn3c(C(=O)Nc4ccccc4Cl)c(-c4ccccc4)c4c3n2CCCC4)cc1 | 0.79 |
| CO/C(=C\C=C\c1cc2cc(Cl)c(Cl)cc2[nH]1)C(=O)NC1CCN(CCNc2ccccc2)CC1 | 0.26 |
| O=C(/C=C/c1ccc(Cl)c(Cl)c1)NC1CCN(CCNC(=O)c2cccc(Cl)c2)CC1 | 0.55 |
| COc1ccc(-n2nc(C)cc2C(=O)NCc2ccc(-c3c(C)noc3C)cc2)cc1 | 0.98 |
| CCOC(=O)c1c(C)n(-c2ccc(Cl)cc2)c2ccc(OC(=O)C=Cc3ccccc3)cc12 | 0.7 |
| COc1ccc(Nc2nc(NCc3cccnc3)cc(-c3ccc(OC)cc3)n2)cc1 | 1.4 |
| Cc1cc(C(=O)Nc2ccc3c(ccn3C3CCCN(Cc4ccc(C(F)(F)F)cc4F)CC3)c2)no1 (stereo not drawn) | 0.76 |
| COc1ccc2nccc(N3CCC(NCCNCc4ccc5c(n4)NC(=O)CO5)C3)c2n1 (stereo not drawn) | 0.86 |
| O=C(NCCCCCN1CCC(c2c[nH]c3ccccc23)CC1)Nc1cccc(I)c1 | 0.99 |
| Cc1[nH]cc(Br)c(=O)c1-c1ccc(Oc2ccccc2)cc1 | 0.68 |
| O=C(c1cc(-c2ccco2)[nH]n1)N1CCN(S(=O)(=O)c2ccc(Br)cc2)CC1 | 0.5 |
| O=C(C(=O)c1ccc(Nc2ccnc3cc(-c4ccccn4)ccc23)cc1)c1ccccc1 | 0.97 |
| CC(C)CNCc1ccc(-c2ccccc2CN(C(=O)NCCc2ccccc2)C2CCN(Cc3ccccc3)CC2)cc1 | 0.88 |
| Cc1ccc2nc(C)cc(NN=Cc3ccc([N+](=O)[O-])o3)c2c1 | 0.75 |
| COc1ccc(-c2cc(C(=O)N[C@@H](CC3CCCCC3)C(=O)NC3CCCc4ccccc43)ccc2O)cc1 (stereo partly drawn) | 0.69 |
| c1cc(C2=N[C@H]3CCCC[C@@H]3N2)ccc1OCCCOc1ccc(C2=N[C@@H]3CCCC[C@H]3N2)cc1 | 0.73 |
| CCn1c(CN2CCN(Cc3ccccc3)CC2)nc2cc(NC(=O)c3cccs3)ccc21 | 0.4 |
| O=C(NCCN1CCCCC1)c1ccc(CNC(=O)c2ccc(O)c(-c3ccc(Cl)c(Cl)c3)c2)cc1 | 0.9 |
| CC(C)(CC1CCCCC1)NC(=O)[C@H](CC1CCCCC1)Nc1ccc(C#N)c2ccccc12 | 0.59 |
| Cc1cccc(CC(N)=NCCCCCCN=C(N)Cc2cccc(C)c2)c1 | 0.17 |
| CC(C)(CNC(=O)C1CCN(CC2CCCCC2)CC1)c1nc(-c2ccc(Cl)c(O)c2)c(-c2ccncc2)[nH]1 | 0.89 |
| CC(C)(CN)c1nc(-c2ccc(Cl)c(O)c2)c(-c2ccnc(N)n2)[nH]1 | 0.98 |
| C[C@H](Cc1ccc(OCCCCCCCOc2ccc(C[C@@H](C)NC[C@H](O)c3cccc(Cl)c3)cc2)cc1)NC[C@H](O)c1cccc(Cl)c1 | 0.19 |
| O=C(Nc1ccc(S(=O)(=O)N2CCOCC2)cc1)c1cc(-c2cc(Cl)ccc2O)n[nH]1 | 0.77 |

| SMILES | IC50 [µM] |
| --- | --- |
| CCNCCCC(C)Nc1ccnc2cc(Cl)ccc12 (stereo not drawn) | 0.2 |
| CCOC(=O)c1[nH]c2cc(Cl)cc(Cl)c2c1/C=C/C(=O)Nc1ccc(-c2cnc(NC(C)=O)[nH]2)cc1 | 1.02 |
| CCC(c1ccccc1)c1nn2c(-c3cccs3)nnc2s1 (stereo not drawn) | 0.17 |
| CC(C)N=C(N)NN=Cc1ccc(Cl)c(Cl)c1 | 0.53 |
| CN(C)CCOc1ccc2c(c1)CN(C)CC2c1ccccc1 (stereo not drawn) | 1.11 |
| CN(Cc1cccc(F)c1)C1CCCN(c2cc(NC(=O)c3ccccc3)ccn2)C1 (stereo not drawn) | 0.92 |
| Cn1nc(-c2cccc(CNCc3ccccc3)c2)c2cnc(NC3CCCC3)nc21 | 1.26 |
| Cc1cc(NC2CCCC2)nc(Nc2ccc(F)cc2)n1 | 0.47 |
| COc1cc(C2NCC3(CCOCC3)c3cc4c(cc32)OCCO4)cc(OC)c1OC (stereo not drawn) | 0.17 |
| O=S(=O)(Nc1ccc(CCN2CCC(N3CCCCC3)CC2)cc1)c1cccc2cccnc12 | 1.06 |
| COc1ccc2nccc([C@@H](O)CN3CCC(NCc4cc5cccc(O)c5c(=O)[nH]4)CC3)c2c1 | 0.39 |
| O=C1CCCN1CCCNCc1ccc(-c2cccc(-c3nc4ccccc4[nH]3)c2)cc1 | 1.02 |
| Cc1cccc(CNc2nccc3[nH]c4ccccc4c23)c1 | 1.9 |
| CCCCCCN1CCC(NCc2cccc3ccccc23)CC1 | 0.81 |
| Cc1nc2nc(N)nc(N)c2c(C)c1Cc1ccc(Cl)cc1 | 0.22 |
| CC(=O)N(C)c1cccc(C(=O)Nc2ccc(-c3cccc(-c4nc5ccc(C(F)(F)F)cc5[nH]4)c3)cc2)c1 | 0.72 |
| O=C(NCc1ccc(Cl)c(Cl)c1)c1cc(CNC2CCNCC2)ccc1O | 0.86 |
| Cc1nnsc1C(=O)Nc1cccc(-c2cccc(-c3nc4ccccc4[nH]3)c2)c1 | 0.44 |
| O=C(c1cc(OC(F)(F)F)ccc1O)N1CCN(c2ccccc2)CC1 | 1.05 |
| CC(C)N1CCC(N(Cc2ccc(-c3ccc(C(F)(F)F)cc3)cc2)C(=O)Cn2c(CCc3cccc(F)c3F)cc(=O)c3ccccc32)CC1 | 0.85 |
| O=C(NCCc1cccc(Cl)c1Cl)c1ccc(N2CCN(c3ccncc3)CC2)nc1 | 1.06 |
| CC[C@H]1CN2CCc3c([nH]c4ccccc34)[C@@H]2C[C@@H]1CC1c2cc(OC)c(OC)cc2CCN1C (stereo partly drawn) | 1.09 |
| NC(=NCCCCC1CCCCC1)c1cccc(C(N)=NCCCCC2CCCCC2)n1 | 0.39 |
| CCN(CC)CCCN(C(=O)Nc1ccc(C#N)cc1)c1nc(-c2ccc(F)cc2)cs1 | 0.65 |
| O=C(NCc1cccc(F)c1)Nc1ccc(-c2ccc(-c3nc4ccc(C(F)(F)F)cc4[nH]3)cc2)cc1 | 0.77 |

| SMILES | IC50 [µM] |
| --- | --- |
| CCOC(=O)c1cc(C(=O)NCCCCN2CCC(c3ccc(CC)cc3OCC)CC2)ccc1-c1ccc(C(F)(F)F)cc1 | 0.61 |
| O=c1ccc(CNc2nc(NCCc3ccccc3)nc3ccc(Cl)cc23)c[nH]1 | 0.78 |
| COc1cc(Cc2cnc(N)nc2N)cc(OCCCCCCN)c1OC | 0.19 |
| CN(C)Cc1ccc(-c2cccc(NC(=O)c3ccc(Cl)cc3)c2)cc1 | 0.9 |
| CC(C)N1CCC(N(Cc2ccc(-c3ccc(C(F)(F)F)cc3)cc2)C(=O)Cn2c(CCc3cccc(F)c3F)nc(=O)c3cccnc32)CC1 | 0.64 |
| NC1(C(=O)O)Cc2ccc(Cl)cc2C1 (stereo not drawn) | 0.73 |
| CCn1c(C)cc(C=C2SC(=Nc3ccccc3)NC2=O)c1C | 0.68 |
| O=C(NC1c2ccccc2Oc2ccccc21)c1ccccc1O | 0.84 |
| Cc1cccc2[nH]c(-c3ccc(-c4cccc(CNCC5CCCO5)c4)s3)nc12 (stereo not drawn) | 0.97 |
| CCOc1ccccc1[C@H]1[C@H](C(=O)C(C)(C)C)N2c3ccc(Br)cc3C=CC2C12C(=O)c1ccccc1C2=O (stereo partly drawn) | 0.85 |
| CC(C)(C)c1ccc2nccc(Nc3cccc(O)c3)c2c1 | 0.97 |
| COc1ccc2nccc(NN=Cc3ccccc3)c2c1 | 0.11 |
| COc1ccc2ncc(F)c(CCN3C[C@H](CNCc4ccc5c(n4)NC(=O)CS5)[C@H](O)C3)c2c1 | 0.78 |
| CC(C)Oc1cc2c(cc1NS(=O)(=O)c1ccc(-c3cccs3)cc1)CCN(C)CC2 | 0.96 |
| CCCCCN1CCCN(Cc2cccc(NC(=O)c3cc4ccccc4s3)c2)CC1 | 0.59 |
| COc1ccc(NC(=O)/C=C/c2ccc(Cl)c(C(F)(F)F)c2)cc1OCCN(C(C)C)C(C)C | 0.63 |
| O=C(Nc1ccc(CN2CCC(c3c[nH]c4ccc(O)cc34)CC2)cc1)c1ccc(-c2ccccc2)cc1 | 0.25 |
| CCc1nc(N)nc(N)c1-c1ccc(F)c(F)c1 | 0.42 |
| Cc1ccc(-n2c(Cc3cccc4ccccc34)nnc2SCCC#N)c(C)c1 | 0.46 |
| CCOc1ccc(C(=O)Nc2cc(Cl)ccc2O)cc1Cl | 0.7 |
| CC(C)Sc1nncc(-c2cnnc(SC(C)C)n2)n1 | 0.14 |
| CC[C@H]1CN2CC[C@H]1C[C@H]2[C@H](O)c1cc(/C=C/c2ccc(F)cc2)nc2ccc(OC)cc12 | 0.03 |
| CC(C)c1ccc(CN2CCC(CNC(=O)c3cc(-c4ccc(N(C)C)cc4)cs3)C2)cc1 (stereo not drawn) | 1.25 |
| COc1cc2c(cc1OC)CN(CCCCc1ccc(NC(=O)c3cc(Cl)cc(Cl)c3)cc1)CC2 | 1.2 |
| N=C(N)c1ccc2nc(SCc3ccccc3)[nH]c2c1 | 0.69 |

| SMILES | IC50 [µM] |
| --- | --- |
| CN(C)Cc1ccc2nc(-c3cccc(Cc4cc(Cl)ccc4OCc4ccc(Cl)cc4F)n3)[nH]c2c1 | 1.13 |
| Cc1ccccc1C1CCN(C2CCC(NC(=O)/C=C/c3ccccc3C(F)(F)F)CC2)CC1 (stereo not drawn) | 1.41 |
| O=C(NCCCCN1CCC(c2ccc3c(c2OCCN2CCCC2=O)CCCC3)CC1)c1ccc(-c2ccc(C(F)(F)F)cc2)cc1 | 1.52 |
| Cc1nc(N)nc(N)c1-c1ccc(Br)c(Br)c1 | 0.05 |
| c1cc(-c2ccc(CNCCc3ccncc3)cc2)cc(-c2nc3ccccc3[nH]2)c1 | 0.14 |
| O=C(/C=C/c1ccc(Cl)cc1Cl)N1CCC(CCN2CCC(c3c[nH]c4ccccc34)CC2)CC1 | 0.8 |
| Cc1ccccc1CNc1noc(-c2c(-c3ccccc3)noc2C)n1 | 0.9 |
| c1ccc(CN2CCC(NCc3ccccc3-c3cccc(CNC4CCCC4)c3)CC2)cc1 | 0.72 |
| O=C(N[C@H]1CCN(CCc2ccc(O[C@H]3CCNC3)c(Br)c2)C1)c1ccc(Cl)c(Cl)c1 | 0.66 |
| CC(C)c1ccc(NC(=O)c2ccc(C(=O)NC3CCN(Cc4ccsc4)C3)cc2)cc1 (stereo not drawn) | 1.03 |
| CN(C)CCNC(=O)c1ccc2c(c1)ncn2-c1cc(OCc2ccccc2C(F)(F)F)c(C(N)=O)s1 (tested in a mixture with another compound) | 0.81 |
| Cc1ccc(Oc2ccc(NC(=O)CNc3ccccc3N3CCCC3=O)cc2)cc1 | 0.37 |
| Cc1nc(N)nc(N)c1C#CC1CCCC1 | 0.77 |
| CC(C)CCN1CCC(Oc2ccc(NC(=O)c3cccs3)cc2Cl)CC1 | 0.34 |
| Cc1noc(-c2ccccc2)c1CN1CCCC2(CC(C(=O)NCc3cccc(F)c3F)=NO2)C1 (stereo not drawn) | 1.01 |
| COc1cc(N(Cc2ccc(F)cc2)C(=O)c2ccc(-c3ccccc3)cc2)ccc1OCCN1CCCC1 | 0.83 |
| COc1cccc(-c2ccc3c(-c4cccc(S(C)(=O)=O)c4)cnc(N)c3c2)c1 | 0.87 |
| CC(=O)Nc1ccc(CN(Cc2ccc(F)cc2)Cc2cccc(Oc3ccccc3)c2)cc1 | 0.94 |
| Cc1cc(N[C@@H](Cc2ccccc2)C(=O)NCCOc2ccccc2)nc(NCC2CCCCC2)n1 | 0.85 |
| O=C(Nc1ccc(OC(F)(F)F)cc1)Nc1ccc([N+](=O)[O-])cc1 | 0.88 |
| FC(F)(F)c1cc(Nc2ncnc3ccc(Br)cc23)ccc1OCc1ccccc1 | 1.08 |
| CC(C)c1ccc(O)cc1Nc1ccnc2ccc(C(F)(F)F)cc12 | 0.68 |
| CC1CCN(C(=O)[C@H](Cc2c[nH]c3ccccc23)NS(=O)(=O)c2ccc(Cl)cc2)CC1 | 0.67 |
